Experiments:
NIH-3T3 = assay: Cellular proliferation, NIH-3T3 fibroblastoid-type cells; type: cell-based; conditions: Table 1; cells that do not express MYCN
Experimental: Cell viability was assessed by means of an ATP-Lite assay (Luminescence ATP Detection Assay System, PerkinElmer) and is reported as the ratio between the average signal of the treated wells compared to the average value of the wells of untreated control cells. The cells were processed following the instructions provided with the kit.
Moreover, the oligonucleotides having SEQ ID NO 1-23 were administered in lines of fibroblastoid-type cells (NIH-3T3 and Phoenix) and the results are shown in Table 1 (last two columns). […]

SKNBE2c = assay: Cellular proliferation assay (ATP-Lite), SKNBE2c cells; type: cell-based, human; conditions: Table 6
Experimental: For the purpose of assessing the gene modulation ability of the oligonucleotides of the present invention, the effect of their administration on cell viability was determined. For this purpose 5×10^3 cells per well were seeded into 96-well cell culture plates (experiments conducted in triplicate) with 100 μl of OPTI-MEM (GIBCO BRL) medium containing 4% FBS and 2 mM of L-glutammine. The PNA oligonucleotides were administered at different concentrations (1 μM-2.5 μM-5 μM-10 μM) in order to observe a dose-effect relationship. The viability of the treated cells was determined at 48, 72, 96 and 168 hours after treatment. Cell viability was assessed by means of an ATP-Lite assay (Luminescence ATP Detection Assay System, PerkinElmer) and is reported as the ratio between the average signal of the treated wells compared to the average value of the wells of untreated control cells. The cells were processed following the instructions provided with the kit. The assays were performed on the same cell lines used to determine the levels of the MYCN gene messenger and listed in the paragraph: Treatments with Oligonucleotides-QT-PCR. The PNAs having SEQ ID NO: 1-12 were also tested on different cell lines which overexpress MYCN (Kelly, SKNBE2c, RH30, […] 1 and H69). The results are shown in Table 6 and confirm the selectivity and specificity of the inhibition effect of the PNAs on the product of protein translation of the MYCN gene.

MYCN gene = assay: QT-PCR, MYCN mRNA in H69 cells; type: cell-based, human; conditions: Table 6
Experimental: For the purpose of assessing the ability of the oligonucleotides of the present invention to modulate the expression of the target genes, their ability to reduce the quantity of messenger RNA was analyzed using the Real-Time PCR technique.
For this purpose, use was made of 24-well plates, which were seeded with 5.0×10^4 cells with 0.3 ml of OPTI-MEM (GIBCO BRL) medium, 4% FBS and 2 mM L-glutammine (experiments in triplicate) per well.
The cells were incubated for 24 hours at 37° C., in an atmosphere containing 5% CO2 to permit adherence to the base of the wells.
For each well, the oligonucleotides were analyzed at the following final concentrations: • the antisense oligonucleotides siRNA and siRNA gapmer (i.e. the oligonucleotides containing one or more monomers of chemically modified nucleic acids at the 3′ or 5′ end, while in the central portion they have monomers of nucleic acids that have not been modified or have been modified at the level of the phosphodiester bond as a phosphorothioate bond) were used at 200 nM; • the antisense oligonucleotides containing phosphorothioate DNA monomers, the RNA antigene oligonucleotides (agRNA) and the oligonucleotides containing DNA monomers and LNA monomers were used at 10 μM; • the morpholino oligonucleotides were used at a concentration of 1 μM, and • the PNA oligonucleotides were administered at a concentration of 1 μM.
The cells were treated with the oligonucleotides, adding FBS up to 4% 6 hours after administration of the same. After 24 hours the total RNA was extracted from each well and purified using the RNeasy Mini Kit (QIAGEN).
Assays were performed on 8 cell lines obtained from 5 different human tumours which are correlated with MYCN expression, i.e.: • as a neuroblastoma model use was made of the cell lines Kelly, IMR-32 (where the MYCN gene is amplified and superexpressed) and SKNBE2c and LAN1 (where the MYCN gene is amplified and superexpressed and the p53 gene is mutated); • as a rabdomiosarcoma model use was made of the cell line RH30, where the MYCN gene is amplified and superexpressed; • as a Wilms' tumour model use was made of the cell line WiT49, where the MYCN gene is amplified and superexpressed; • as a retinoblastoma model use was made of the cell line Y79, where the MYCN gene is amplified and superexpressed; and • as a model of small cell lung cancer use was made of the cell line H69 where the MYCN gene is amplified and superexpressed.
As a control, use was made of the same cell lines as listed above treated with sterile water instead of oligonucleotides. Each RNA sample was quantified (in duplicate) using a NanoDrop ND-1000 spectrophotometer (NanoDrop Technologies). The first strand of cDNA was produced using the cDNA Synthesis Kit for RT-PCR (Roche). For the cDNA synthesis reaction a total of 1 μg of RNA was used. For the real-time PCR, 10 ng of cDNA in a final volume of 20 μl was used with SYBR Green Master Mix 2× (Applied Biosystems) (3 identical experiments were conducted in triplicate). Two housekeeping genes were used as positive controls: GAPDH and beta-actin (ACTB).
The conditions of the QT-PCR reaction were: 10 min at 95° C., 20 sec at 95° C., and 30 sec at 60° C., for 50 cycles.
The PNAs having SEQ ID NO: 1-12 were also tested on different cell lines which overexpress MYCN (Kelly, SKNBE2c, RH30, WiT49, WERI-Rb1 1 and H69). The results are shown in Table 6 and confirm the selectivity and specificity of the inhibition effect of the PNAs on the product of protein translation of the MYCN gene.
The oligonucleotides were tested in vitro (at a concentration of 2.5 μM) to determine their ability to inhibit the transcription of the gene they are directed against by measuring the levels of the gene messenger in cellular models in which the gene of interest is overexpressed. The methods used are the ones described in example 1. […]

| Substance | NIH-3T3 prolif. (%) (NIH-3T3) | SKNBE2c % cell prol. (SKNBE2c) [%] | H69 % mRNA (MYCN gene) [%] |
| --- | --- | --- | --- |
| SEQ ID NO: 1: PNA ATGCCGGGCATGATCT against MYCN; subject of patent EP 1618195, control sequence used for comparison (all peptide nucleic acid (PNA)) [reference compound] | 100 | 72 | 40 |
| SEQ ID NO: 10: PNA antigene oligonucleotide CGGCCGCGGGCCGCCA directed against MYCN (PNA backbone, chemistry not fully specified) | 100 | 70 | 41 |
| SEQ ID NO: 12: PNA antigene oligonucleotide TGTCTGGACGCGCTGG directed against MYCN (all peptide nucleic acid (PNA)) | 100 | 71 | 40 |
| SEQ ID NO: 6: PNA antigene oligonucleotide TGGACGCGCTGGGTGG directed against MYCN (PNA backbone, chemistry not fully specified) | 100 | 57 | 55 |
| SEQ ID NO: 8: PNA antigene oligonucleotide GTCTGGACGCGCTGGG directed against MYCN (all peptide nucleic acid (PNA)) | 100 | 56 | 56 |
| SEQ ID NO: 2: PNA antigene oligonucleotide GGGTGGATGCGGGGGG directed against MYCN (PNA backbone, chemistry not fully specified) | 100 | 52 | 58 |
| SEQ ID NO: 7: PNA antigene oligonucleotide CGCGCTGGGTGGATGC directed against MYCN (all peptide nucleic acid (PNA)) | 100 | 58 | 55 |
| SEQ ID NO: 3: PNA antigene oligonucleotide GATGCGGGGGGCTCCT directed against MYCN (PNA backbone, chemistry not fully specified) | 100 | 53 | 55 |
| SEQ ID NO: 11: PNA antigene oligonucleotide GGGAACTGTGTTGGAG directed against MYCN (PNA backbone, chemistry not fully specified) | 100 | 71 | 41 |
| SEQ ID NO: 4: PNA antigene oligonucleotide GTCGGCGGGAGGTAAG directed against MYCN (PNA backbone, chemistry not fully specified) | 100 | 59 | 55 |
| SEQ ID NO: 9: PNA antigene oligonucleotide CCCTGCAGTCGGCGGG directed against MYCN (all peptide nucleic acid (PNA)) | 100 | 64 | 50 |
| SEQ ID NO: 5: PNA antigene oligonucleotide GCTGGGTGGATGCGGG directed against MYCN (PNA backbone, chemistry not fully specified) | 100 | 64 | 54 |
